Publication PMC12389534, “Unlocking Therapeutic Potential of Novel Thieno-Oxazepine Hybrids as Multi-Target Inhibitors of AChE/BChE and Evaluation Against Alzheimer’s Disease: In Vivo, In Vitro, Histopathological, and Docking Studies” (Pharmaceuticals, 2025)
“Also recorded” adds a separate entry of the source.

How the values were obtained:
[1] = tested on: AlCl3-induced AD rat model; assay: Morris water maze (MWM) test in AlCl3-induced AD rats; format: in vivo; conditions: for Learning (s): escape latency; for Learning (s) / Memory (s): mean ± SE, n = 6; for Memory (s): time spent in target quadrant
Experimental: All procedures were conducted conforming to the applicable National Institutes of Health standards and regulations for the Care and Use of Laboratory Animals. In this experiment, adult male Dawley rats in excellent condition weighing between 300 and 320 g were used. The animals were acquired from the Nile Company for Pharmaceuticals and Chemical Industries (Cairo, Egypt). They were placed in a controlled laboratory setting with unrestricted access to water, a temperature range of 24 to 26 °C, and 12 h a light–dark cycle. Three rats per cage were housed in polycarbonate cages that were individually packed with paper and encased with stainless steel wire.
Spatial learning and memory were inspected using the MWM test. Tap water was poured into a 150 cm diameter by 60 cm high circular water tank until it reached a depth of 30 cm (25 ± 2 °C). To make the water […], non-toxic white dye was applied. The east, west, north, and south quadrants of the pool were essentially separated into four equal sections. At a specific spot in the middle of one quadrant, an escape platform with a diameter of 10 cm was submerged 2 cm below the water’s surface. The platform stood in the exact same quadrant throughout the testing. The rats’ swimming route was recorded by a video camera situated above the pool. From a designated spot in each quadrant, each rat was submerged in the water with its back turned to the pool wall, and it was then left to swim to the platform. The rats received training sessions every day for three days in a row, with four trials conducted in each session. Before the next trial began, the animals were kept a maximum of 60 s to explore the hidden platform. After that, they were permitted to relax on it for 20 s. The rat was positioned gently on the platform and allowed 20 s to rest if it took longer than 60 s to locate it. The time taken to find the platform, or the escape latency, was documented. In order to do a probing test on the fourth day, the platform was detached away, and the rats were given 60 s to swim liberally. The time spent in the assigned quadrant was counted.

BACE1 = assay: Brain BACE1 level (ELISA); format: in vivo, rat; design: reduction of BACE1 levels: concentration or dose not given beside the values; conditions: AlCl3-induced AD rats; for BACE1 (ng/mL): mean ± SE, n = 6
Experimental: The brain tissues of the rats were removed and rigorously washed in isotonic saline 24 h after they were euthanized following the last behavioral test. For histological investigation, four brains per group were preserved for the whole night in 10% neutral buffered formalin. The remaining six brains were split into two sections each. In order to create a 10% homogenate (w/v), the first component was instantaneously homogenized using an ice-cold solution that included 300 mM sucrose and 50 mM Tris-HCl (pH 7.4). The homogenate was centrifuged at 1800× g for 10 min at 4 °C for biochemical tests, and the supernatant was thereafter kept at −20 °C. The second portion was set aside for use in RT-PCR analysis at −80 °C [94]. […]

5-HT = assay: Brain 5-HT level (fluorometric); format: in vivo, rat; conditions: AlCl3-induced AD rats; for 5-HT (ng/g Tissue): brain tissue, mean ± SE, n = 6
Experimental: (§1) The brain tissues of the rats were removed and rigorously washed in isotonic saline 24 h after they were euthanized following the last behavioral test. For histological investigation, four brains per group were preserved for the whole night in 10% neutral buffered formalin. The remaining six brains were split into two sections each. In order to create a 10% homogenate (w/v), the first component was instantaneously homogenized using an ice-cold solution that included 300 mM sucrose and 50 mM Tris-HCl (pH 7.4). The homogenate was centrifuged at 1800× g for 10 min at 4 °C for biochemical tests, and the supernatant was thereafter kept at −20 °C. The second portion was set aside for use in RT-PCR analysis at −80 °C [94].
Brain monoamine levels were promptly assessed following the rats’ euthanasia to prevent changes in the substance’s concentration. Dopamine (DA), norepinephrine (NE), and serotonin (5-HT) fluorometric tests were conducted on brain tissue homogenate using the Ciarlone method. […] The concentrations were articulated as nanograms per gram of fresh tissue using the fluorescence of reference solutions [95].

BDNF = assay: Brain BDNF level (ELISA); format: in vivo, rat; conditions: AlCl3-induced AD rats; for BDNF (ng/mL): brain tissue, mean ± SE, n = 6
Experimental: as §1
(§2) See Supplementary Information.

NFκβ = NFκβ mRNA expression (RT-qPCR); format: in vivo, rat; design: reduction of NFκβ mRNA expression: concentration or dose not given beside the values; conditions: AlCl3-induced AD rats; for NFκβ: mRNA expression level, mean ± SE, n = 6
Experimental: as §1, §2

NLRP3 = NLRP3 mRNA expression (RT-qPCR); format: in vivo, rat; design: reduction of NLRP3 mRNA expression: concentration or dose not given beside the values; conditions: AlCl3-induced AD rats; for NLRP3: mRNA expression level, mean ± SE, n = 6
Experimental: as §1, §2

Caspase-1 = Caspase-1 gene expression (RT-qPCR); format: in vivo, rat; design: reduction of Caspase-1 levels: concentration or dose not given beside the values; conditions: AlCl3-induced AD rats; for Caspase-1: gene expression, mean ± SE, n = 6
Experimental: as §1, §2

Bcl-2 = Bcl-2 gene expression (RT-qPCR); format: in vivo, rat; conditions: AlCl3-induced AD rats; for Bcl-2: gene expression, mean ± SE, n = 6
Experimental: as §1, §2

TAC = assay: Brain TAC (colorimetric); format: in vivo, rat; conditions: AlCl3-induced AD rats; for TAC (µmol/g Tissue): brain tissue, mean ± SE, n = 6
Experimental: as §1
The SOD enzyme activity was estimated using the Marklund et al. method, which is founded on the enzyme’s capacity to decrease the nitro blue tetrazolium dye at a wavelength of 540 nm. To evaluate the TAC, a colorimetric approach was employed to estimate the amount of hydrogen peroxide that remains after 3,5-dichloro-2-hydroxybenzene sulphonate is converted to a colored product at 660 nm.

Nrf-2 = Nrf-2 mRNA expression (RT-qPCR); format: in vivo, rat; conditions: AlCl3-induced AD rats; for Nrf-2: mRNA expression in brain tissue, mean ± SE, n = 6
Experimental: as §1, §2

HO-1 = HO-1 mRNA expression (RT-qPCR); format: in vivo, rat; conditions: AlCl3-induced AD rats; for HO-1: mRNA expression in brain tissue, mean ± SE, n = 6
Experimental: as §1, §2

[2] = tested on: brain tissue (CC, ST, FD, SN neurons); assay: Histopathological examination of brain tissue; format: in vivo, rat; conditions: brain sections, AlCl3-induced AD rats; for histopathological finding in CC, ST, FD and SN (NP = nuclear pyknosis): H&E
Experimental: as §1
Brain tissue samples were stationed in 10% formalin for 24 h, washed with water, and then serially diluted with alcohol to induce dehydration. After being submerged in paraffin, the specimens were cut into segments that were 4 µm thick using a microtome.

BAX/Bcl-2 = BAX/Bcl-2 ratio of gene expression; format: in vivo, rat; conditions: AlCl3-induced AD rats
Experimental: as §1, §2

SMILES	Learning (s) [1]	Memory (s) [1]	BACE1 (ng/mL) (BACE1)	elevation of 5-HT levels (5-HT)	5-HT (ng/g Tissue) (5-HT)	elevation of BDNF levels (BDNF)	BDNF (ng/mL) (BDNF)	reduction of NFκβ mRNA expression (NFκβ)	NFκβ (NFκβ)	reduction of NLRP3 mRNA expression (NLRP3)	NLRP3 (NLRP3)	reduction of Caspase-1 levels (Caspase-1)	Caspase-1 (Caspase-1)	upregulation of Bcl-2 gene expression (Bcl-2)	Bcl-2 (Bcl-2)	improvement of TAC levels (TAC)	TAC (µmol/g Tissue) (TAC)	elevation of Nrf-2 mRNA expression (Nrf-2)	Nrf-2 (Nrf-2)	elevation of HO-1 mRNA expression (HO-1)	other results
N#Cc1ccc(N2CC(=O)Oc3sc4c(c3C2=O)CCCCC4)cc1 [Compound 13, 4-(2,5-Dioxo-2,3,7,8,9,10-hexahydro-6H-cyclohepta[4,5]thieno[3,2-f][1,4]oxazepin-4(5H)-yl)benzonitrile]	14.17 ± 0.95 ^abc s	40.50 ± 2.62 ^abc s	11.35 ± 0.31 ^abc ng/mL	4.1 fold	7.39 ± 0.1 ^abc ng/g Tissue	2.4 fold	104.9 ± 0.07 ^abc ng/mL	58.8%	3.49 ± 0.07 ^abc	73.2%	2.86 ± 0.11 ^abc	59.5%	3.85 ± 0.070 ^abc	6.5 fold	0.79 ± 0.020 ^abc	~3.4 times	32.9 ± 1.22 ^abc µmol/g Tissue	4.8 fold	0.78 ± 0.010 ^abc	6.2 fold	increase in quadrant residence time [1]: about 4.1 times; reduction in escape latency [1]: 71.2%; reduction of BACE1 levels (BACE1): 61.7%; HO-1 (HO-1): 0.75 ± 0.010 ^abc; histopathological finding in CC, ST, FD and SN (NP = nuclear pyknosis) [2]: normal histology of CC and FD, and moderate NP in ST and SN; histology of CC neurons and FD [2]: normal histological structures; pyknosis in ST and SN neurons [2]: moderate pyknosis; BAX/Bcl-2 Ratio (BAX/Bcl-2): 7.34
CCOc1ccc(N2CC(=O)Oc3sc4c(c3C2=O)CCCCC4)cc1 [Compound 14, 4-(4-Ethoxyphenyl)-3,4,7,8,9,10-hexahydro-6H-cyclohepta[4,5]thieno[3,2-f][1,4]oxazepine-2,5-dione]	21 ± 1.13 ^abc s	29.50 ± 2 ^abc s	16.66 ± 0.38 ^abc ng/mL	4.5 fold	8.22 ± 0.19 ^abc ng/g Tissue	2.7 fold	115.8 ± 0.07 ^abc ng/mL	56%	3.73 ± 0.04 ^abc	63.2%	3.92 ± 0.04 ^abc	46.6%	5.08 ± 0.050 ^abc	5.8 fold	0.70 ± 0.004 ^abc	3.8 times	36.96 ± 0.51 ^abc µmol/g Tissue	3.1 fold	0.50 ± 0.020 ^abc	5.3 fold	reduction of BACE1 levels (BACE1): 43.8%; HO-1 (HO-1): 0.64 ± 0.009 ^abc; histopathological finding in CC, ST, FD and SN (NP = nuclear pyknosis) [2]: moderate NP in CC, FD, and SN, normal histology of neurons in ST; also recorded: significant pyknosis; BAX/Bcl-2 Ratio (BAX/Bcl-2): 7.84
O=C1CN(c2ccc(O)cc2)C(=O)c2c(sc3c2CCCCC3)O1 [Compound 15, 4-(4-Hydroxyphenyl)-3,4,7,8,9,10-hexahydro-6H-cyclohepta[4,5]thieno[3,2-f][1,4]oxa-zepine-2,5-dione]	19.17 ± 1.01 ^abc s	42.50 ± 1.06 ^abc s	10.50 ± 0.2 ^abc ng/mL	3.7 fold	6.77 ± 0.22 ^abc ng/g Tissue	2.2 fold	94.48 ± 0.05 ^abc ng/mL	64.8%	2.98 ± 0.10 ^abc	68.5%	3.36 ± 0.12 ^abc	69.1%	2.94 ± 0.110 ^abc	7.1 fold	0.86 ± 0.020 ^abc	~3.3 times	31.67 ± 0.42 ^abc µmol/g Tissue	5.1 fold	0.82 ± 0.020 ^abc	6.7 fold	increase in quadrant residence time [1]: ~4.3 times; reduction in escape latency [1]: 61%; reduction of BACE1 levels (BACE1): 64.6%; HO-1 (HO-1): 0.82 ± 0.005 ^abc; histopathological finding in CC, ST, FD and SN (NP = nuclear pyknosis) [2]: normal histology of CC and FD, and moderate NP in ST and SN; histology of CC neurons and FD [2]: normal histological structures; pyknosis in ST and SN neurons [2]: moderate pyknosis; BAX/Bcl-2 Ratio (BAX/Bcl-2): 5.20
COc1ccc(N2CC(=O)Oc3sc4c(c3C2=O)CCCCC4)cc1 [Compound 16, 4-(4-Methoxyphenyl)-3,4,7,8,9,10-hexahydro-6H-cyclohepta[4,5]thieno[3,2-f][1,4]oxa-zepine-2,5-dione]	26.83 ± 1.2 ^abc s	36.00 ± 1.27 ^abc s	17.44 ± 0.23 ^abc ng/mL	5.9 fold	10.65 ± 0.71 ^abc ng/g Tissue	3.1 fold	134.8 ± 0.01 ^abc ng/mL	44.5%	4.70 ± 0.12 ^abc	59.5%	4.32 ± 0.10 ^abc	47%	5.04 ± 0.130 ^abc	5.2 fold	0.63 ± 0.020 ^abc	4.4 times	42.42 ± 0.84 ^abc µmol/g Tissue	2.9 fold	0.47 ± 0.005 ^abc	4.1 fold	increase in quadrant residence time [1]: 3.6 times; HO-1 (HO-1): 0.50 ± 0.020 ^abc; histopathological finding in CC, ST, FD and SN (NP = nuclear pyknosis) [2]: mild NP in neurons in CC, as well as moderate NP in neurons of ST, FD, and SN; also recorded: minor NP in the CC and significant NP in FD, ST, and SN; BAX/Bcl-2 Ratio (BAX/Bcl-2): 9.75
